Measured values as given in patent publication US11274332B2, “Methods of administering 3,4-diaminopyridine” (SERB SA, priority 2011, dated 2022).

Key:
[1] = target: T1, cloned human Kv1.2 potassium channel (Homo sapiens, UniProt P16389); test: PatchXpress inhibition of cloned human Kv1.2 in HEK293 cells (Example 6); format: cell-based; conditions: hKv1.2, up to 3000 μM
T1 construct: expressed in transfected cells
Description: (§1) The objective of this study was to examine the in vitro effects and determine the […] of 3,4-DAP phosphate and the metabolite N-(4-aminopyridin-3-yl) acetamide HCl on the following ion channels: cloned human Kv1.1 potassium channel (encoded by the human KCNA1 gene, expressed in HEK293 cells), cloned human Kv1.2 potassium channel (encoded by the human KCNA2 gene, expressed in HEK293 cells), cloned human Kv1.3 potassium channel (encoded by the human KCNA3 gene, expressed in CHO cells), cloned human Kv1.4 potassium channel (encoded by the human KCNA4 gene, expressed in HEK293 cells), cloned human Kv1.5 potassium channel (encoded by the human KCNA5 gene and expressed in CHO cells), responsible for IKur, ultra-rapid delayed rectifier potassium current.
(§2) Chemicals used in solution preparation were purchased from Sigma-Aldrich (St. Louis, Mo.), unless otherwise noted, and were of ACS reagent grade purity or higher. Stock solutions of each test article (100 mM, 30 mM and 1.00 mM 3,4-DAP phosphate and 100 mM N-(4-aminopyridin-3-yl)acetamide) were prepared in sterile water and stored refrigerated. […]
(§3) In preparation for a recording session, intracellular solution was loaded into the intracellular compartments of the Sealchip16. […] After establishment of a whole-cell configuration, membrane currents were recorded using dual-channel patch clamp amplifiers in the PatchXpress®. […]

[2] = target: T2, cloned human Kv1.4 potassium channel (Homo sapiens, UniProt P22459); test: PatchXpress inhibition of cloned human Kv1.4 in HEK293 cells (Example 6); format: cell-based; conditions: hKv1.4, up to 3000 μM
T2 construct: expressed in transfected cells
T2 sequence (P22459 whole entry): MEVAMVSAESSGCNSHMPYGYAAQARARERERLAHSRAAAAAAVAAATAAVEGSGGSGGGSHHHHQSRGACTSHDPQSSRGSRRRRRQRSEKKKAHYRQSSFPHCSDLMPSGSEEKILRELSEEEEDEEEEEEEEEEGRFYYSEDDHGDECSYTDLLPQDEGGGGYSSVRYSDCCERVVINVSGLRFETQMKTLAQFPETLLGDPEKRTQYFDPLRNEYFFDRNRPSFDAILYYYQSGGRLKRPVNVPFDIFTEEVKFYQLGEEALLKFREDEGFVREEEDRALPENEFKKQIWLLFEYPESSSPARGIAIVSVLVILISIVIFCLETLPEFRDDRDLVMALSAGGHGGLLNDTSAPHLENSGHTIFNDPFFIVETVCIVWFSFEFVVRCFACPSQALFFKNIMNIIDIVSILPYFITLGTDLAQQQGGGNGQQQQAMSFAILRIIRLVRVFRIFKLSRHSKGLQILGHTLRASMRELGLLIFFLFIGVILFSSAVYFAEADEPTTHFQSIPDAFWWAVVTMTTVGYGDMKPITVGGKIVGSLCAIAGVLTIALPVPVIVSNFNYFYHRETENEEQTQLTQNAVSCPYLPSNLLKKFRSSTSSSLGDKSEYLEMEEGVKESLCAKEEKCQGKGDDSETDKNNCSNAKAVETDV
Description: as §1, §2, §3

T1 sequence (P16389 whole entry): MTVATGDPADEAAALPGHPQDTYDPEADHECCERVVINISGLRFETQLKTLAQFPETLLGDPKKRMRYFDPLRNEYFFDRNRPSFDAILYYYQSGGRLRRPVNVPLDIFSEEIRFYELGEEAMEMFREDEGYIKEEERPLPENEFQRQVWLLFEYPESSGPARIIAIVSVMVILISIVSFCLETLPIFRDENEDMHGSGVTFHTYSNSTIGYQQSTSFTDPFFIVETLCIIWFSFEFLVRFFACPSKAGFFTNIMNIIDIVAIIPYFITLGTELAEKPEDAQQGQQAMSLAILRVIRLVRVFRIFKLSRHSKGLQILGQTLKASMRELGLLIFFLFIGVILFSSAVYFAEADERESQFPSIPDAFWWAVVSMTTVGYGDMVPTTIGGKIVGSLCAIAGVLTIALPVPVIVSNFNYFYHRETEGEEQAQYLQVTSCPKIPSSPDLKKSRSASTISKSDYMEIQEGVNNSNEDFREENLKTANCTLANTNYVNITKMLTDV

activity on K+ channel [1]: inactive
activity on K+ channel ([1]; listed as N-acetyl metabolite): not active
activity on K+ channel [2]: inactive
activity on K+ channel ([2]; listed as N-acetyl metabolite): not active
Compound: CC(=O)Nc1cnccc1N [3-N-acetyl amifampridine, N-(4-aminopyridin-3-yl)acetamide]
